From patent US9765105B2, “Macrolide compound” (Pulike Biological Engineering, Inc., priority 2013, dated 2017)

Tests used:
[1] = test system: Streptococcus pneumoniae CMCC 31203; experiment: in vivo antibacterial test, survival of infected mice; set-up: species or system BALB/c mice; settings: observed until the seventh day
[2] = acute oral toxicity test, LD50 by improved karber method; settings: for LD50 at 7 days: both, Konmin, mouse, in vivo, po; for LD50: per os, gavaged once, in 0.2% sodium carboxymethylcellulose, observed 7 days
[3] = acute toxicity test, single gastric perfusion; type: in vivo, Balb/c mice; settings: 2000 mg/kg once by gastric perfusion, 85 mg/ml suspension; deaths after 6 h
Source text: The marked parts of mice in the Syzx-24 group were respectively left hinder limbs (female), necks (female), right hinder limbs (male), and necks (male). The mice in the solvent control group were not marked.

[4] = test system: Streptococcus equines CVCC556; experiment: in vitro susceptibility, MIC by mini broth dilution; type: cell-based; settings: strain CVCC556
In short: (§1)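 MICs determined by mini broth dilution following NCCLS standards, using two-fold serial dilutions of compound in DMSO across 11 gradients, in duplicate rows. Strains were revived and subcultured at 35 °C for 20 h. Bacterial suspension was diluted 1:200 in liquid medium.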

[5] = test system: Haemophilus parasuis; experiment: as above; type: cell-based
In short: as §1

[6] = test system: Actinobacillus pleuropneumoniae CVCC262; experiment: as above; type: cell-based; settings: strain CVCC262
In short: as §1

[7] = test system: Pasteurella multocida CVCC399; experiment: as above; type: cell-based; settings: strain CVCC399
In short: as §1

[8] = test system: Staphylococcus aureus CVCC26003; experiment: as above; type: cell-based; settings: strain CVCC26003
In short: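 MICs were determined by mini broth dilution under NCCLS standards in CAMHB, using revived S. aureus CVCC26003 subcultured 20 h at 35° C. Compounds were two-fold serially diluted in DMSO across 11 wells, with duplicate rows. Bacterial suspension was diluted 1:200 in medium before inoculation.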

[9] = orally intoxicated mice; reported; cited from earlier work
[10] = mice infected i.p. with Streptococcus pneumoniae, 5 mg per kg subcutaneous for 3 consecutive days
[11] = medicament control group, Tulathromycin 10 mg per kg after infection

## CCCCNC[C@]1(O)[C@H](C)OC(O[C@@H]2[C@@H](C)[C@@H](O[C@@H]3O[C@H](C)C[C@H](N(C)C)[C@H]3O)[C@](C)(O)C[C@@H](C)NC[C@@H](C)[C@H](O)[C@](C)(O)[C@H](CC)OC(=O)[C@@H]2C)C[C@@]1(C)OC (stereo partly drawn) [syzx-2, (2R,3S,4R,5S,8R,10R,11R,12S,13S,14R)-13-[(2,6-dideoxy-3-C-methyl-3-O-methyl-4-C-[(butylamino)methyl]-α-L-ribopyranosyl)oxy]-2-ethyl-3,4,10-trihydroxy-3,5,8,10,12,14-hexamethyl-11-[[3,4,6-trideoxy-3-(dimethylamino)-β-D-xylo-hexopyranosy]oxy]-1-oxa-7-azacyclopentadecan-15-one]
[1]; [10]
  Animal survival rate (surviving/total animals): 8/10
[2]
  LD50 at 7 days: 2550 mg/kg

## CCCN1C[C@@H](C)[C@@H](O)[C@](C)(O)[C@H](CC)OC(=O)[C@H](C)[C@H](OC2C[C@@](C)(OC)[C@](O)(CN(C)CC)[C@H](C)O2)[C@H](C)[C@@H](O[C@@H]2O[C@H](C)C[C@H](N(C)C)[C@H]2O)[C@](C)(O)C[C@H]1C (stereo partly drawn) [syzx-213]
[1]; [10]
  Animal survival rate (surviving/total animals): 9/10
[2]
  LD50 at 7 days: 2790 mg/kg

## CC[C@@H]1OC(=O)[C@H](C)[C@H](OC2C[C@@](C)(OC)[C@](O)(CN3CCOCC3)[C@H](C)O2)[C@@H](C)[C@@H](O[C@@H]2O[C@H](C)C[C@H](N(C)C)[C@H]2O)[C@](C)(O)C[C@@H](C)NC[C@@H](C)[C@H](O)[C@]1(C)O (stereo partly drawn) [syzx-5, (2R,3S,4R,5S,8R,10R,11R,12S,13S,14R)-13-[(2,6-dideoxy-3-C-methyl-3-O-methyl-4-C-[(morpholinyl)methyl]-α-L-ribopyranosyl)oxy]-2-ethyl-3,4,10-trihydroxy-3,5,8,10,12,14-hexamethyl-11-[[3,4,6-trideoxy-3-(dimethylamino)-β-D-xylo-hexopyranosy]oxy]-1-oxa-7-azacyclopentadecan-15-one]
[1]; [10]
  Animal survival rate (surviving/total animals): 7/10
[2]
  LD50 at 7 days: 2730 mg/kg

## CC[C@H]1OC(=O)[C@H](C)[C@@H](O[C@H]2C[C@@](C)(OC)[C@](O)(CN(C)C)[C@H](C)O2)[C@H](C)[C@@H](O[C@@H]2O[C@H](C)C[C@H](N(C)C)[C@H]2O)[C@](C)(O)C[C@@H](C)NC[C@H](C)[C@@H](O)[C@]1(C)O [Syzx-24]
[3]
  Death rate: 0%
  Number of dead animals/total number of animals: 0/4
[4]
  MIC values, Streptococcus equines CVCC556: 0.25 ug/mi
[5]
  MIC values, Haemophilus parasuis: 0.5 ug/mi
[6]
  MIC values, Actinobacillus pleuropneumoniae CVCC262: 0.25 ug/mi
[7]
  MIC values, Pasteurella multocida CVCC399: 0.25 ug/mi
[8]
  MIC values, Staphylococcus aureus CVCC26003: 0.5 ug/mi

## CC[C@@H]1OC(=O)[C@H](C)[C@H](OC2C[C@@](C)(OC)[C@](O)(CNC(C)(C)C)[C@H](C)O2)[C@@H](C)[C@@H](O[C@@H]2O[C@H](C)C[C@H](N(C)C)[C@H]2O)[C@](C)(O)C[C@@H](C)NC[C@@H](C)[C@H](O)[C@]1(C)O (stereo partly drawn) [syzx-14]
[1]; [10]
  Animal survival rate (surviving/total animals): 8/10
[2]
  LD50 at 7 days: 2590 mg/kg

## CCCNC[C@]1(O)[C@H](C)O[C@@H](O[C@H]2[C@H](C)[C@@H](O[C@@H]3O[C@H](C)C[C@H](N(C)C)[C@H]3O)[C@](C)(O)C[C@@H](C)CN[C@H](C)[C@@H](O)[C@](C)(O)[C@@H](CC)OC(=O)[C@@H]2C)C[C@@]1(C)OC [Tulathromycin, reference compound]
[1]; [11]
  Animal survival rate: 70%
  Animal survival rate (surviving/total animals): 7/10
[3]
  Death rate: 75%
  Number of dead animals/total number of animals: 3/4 (2 female and 1 male)
[4]
  MIC values, Streptococcus equines CVCC556: 0.25 ug/mi
[5]
  MIC values, Haemophilus parasuis: 0.25 ug/mi
[6]
  MIC values, Actinobacillus pleuropneumoniae CVCC262: 0.25 ug/mi
[7]
  MIC values, Pasteurella multocida CVCC399: 0.25 ug/mi
[2]
  LD50: 2379.2 mg/kg
[9]
  minimum lethal dose: higher than 2000 mg/kg·d-1
[8]
  MIC values, Staphylococcus aureus CVCC26003: 0.25 ug/mi

## CC[C@@H]1OC(=O)[C@H](C)[C@H](OC2C[C@@](C)(OC)[C@](O)(CN(CC)CC)[C@H](C)O2)[C@@H](C)[C@@H](O[C@@H]2O[C@H](C)C[C@H](N(C)C)[C@H]2O)[C@](C)(O)C[C@@H](C)NC[C@@H](C)[C@H](O)[C@]1(C)O (stereo partly drawn) [syzx-3, (2R,3S,4R,5S,8R,10R,11R,12S,13S,14R)-13-[(2,6-dideoxy-3-C-methyl-3-O-methyl-4-C-[(diethylamino)methyl]-α-L-ribopyranosyl)oxy]-2-ethyl-3,4,10-trihydroxy-3,5,8,10,12,14-hexamethyl-11-[[3,4,6-trideoxy-3-(dimethylamino)-β-D-xylo-hexopyranosy]oxy]-1-oxa-7-azacyclopentadecan-15-one]
[1]; [10]
  Animal survival rate (surviving/total animals): 8/10
[2]
  LD50 at 7 days: 2490 mg/kg

## CCCNC[C@]1(O)[C@H](C)O[C@@H](O[C@H]2[C@H](C)[C@@H](O[C@@H]3O[C@H](C)C[C@H](N(C)C)[C@H]3O)[C@](C)(O)C[C@@H](C)NC[C@H](C)[C@@H](O)[C@](C)(O)[C@@H](CC)OC(=O)[C@@H]2C)C[C@@]1(C)OC [syzx-1, (2R,3S,4R,5S,8R,10R,11R,12S,13S,14R)-13-[(2,6-dideoxy-3-C-methyl-3-O-methyl-4-C-[(propylamino)methyl]-α-L-ribopyranosyl)oxy]-2-ethyl-3,4,10-trihydroxy-3,5,8,10,12,14-hexamethyl-11-[[3,4,6-trideoxy-3-(dimethylamino)-β-D-xylo-hexopyranosy]oxy]-1-oxa-7-azacyclopentadecan-15-one]
[1]; [10]
  Animal survival rate: 80%
  Animal survival rate (surviving/total animals): 8/10
[4]
  MIC values, Streptococcus equines CVCC556: 0.125 ug/mi
[5]
  MIC values, Haemophilus parasuis: 0.125 ug/mi
[6]
  MIC values, Actinobacillus pleuropneumoniae CVCC262: 0.125 ug/mi
[7]
  MIC values, Pasteurella multocida CVCC399: 1 ug/mi
[2]
  LD50: 2584.8 mg/kg
[8]
  MIC values, Staphylococcus aureus CVCC26003: 0.125 ug/mi

## CCCNC[C@]1(O)[C@H](C)O[C@@H](O[C@H]2[C@H](C)[C@@H](O[C@@H]3O[C@H](C)C[C@H](N(C)C)[C@H]3O)[C@](C)(O)C[C@@H](C)N(CCC)C[C@H](C)[C@@H](O)[C@](C)(O)[C@@H](CC)OC(=O)[C@@H]2C)C[C@@]1(C)OC [syzx-101, (2R,3S,4R,5S,8R,10R,11R,12S,13S,14R)-13-[(2,6-dideoxy-3-C-methyl-3-O-methyl-4-C-[(n-propylamino)-methyl]-α-L-ribopyranosyl)oxy]-2-ethyl-3,4,10-trihydroxy-3,5,8,10,12,14-hexamethyl-7-propyl-11-[[3,4,6-trideoxy-3-(dimethylamino)-β-D-xylo-hexopyranosy]oxy]-1-oxa-7-azacyclopentadecan-15-one]
[1]; [10]
  Animal survival rate: 90%
  Animal survival rate (surviving/total animals): 9/10
[4]
  MIC values, Streptococcus equines CVCC556: 0.125 ug/mi
[5]
  MIC values, Haemophilus parasuis: 0.125 ug/mi
[6]
  MIC values, Actinobacillus pleuropneumoniae CVCC262: 0.125 ug/mi
[7]
  MIC values, Pasteurella multocida CVCC399: 0.125 ug/mi
[2]
  LD50: 3760.6 mg/kg
[8]
  MIC values, Staphylococcus aureus CVCC26003: 0.125 ug/mi

## CC[C@@H]1OC(=O)[C@H](C)[C@H](OC2C[C@@](C)(OC)[C@](O)(CNCC3CC3)[C@H](C)O2)[C@@H](C)[C@@H](O[C@@H]2O[C@H](C)C[C@H](N(C)C)[C@H]2O)[C@](C)(O)C[C@@H](C)NC[C@@H](C)[C@H](O)[C@]1(C)O (stereo partly drawn) [syzx-17, (2R,3S,4R,5S,8R,10R,11R,12S,13S,14R)-13-[(2,6-dideoxy-3-C-methyl-3-O-methyl-4-C-[(cyclopropylmethylamino)methyl]-α-L-ribopyranosyl)oxy]-2-ethyl-3,4,10-trihydroxy-3,5,8,10,12,14-hexamethyl-11-[[3,4,6-trideoxy-3-(dimethylamino)-β-D-xylo-hexopyranosy]oxy]-1-oxa-7-azacyclopentadecan-15-one]
[1]; [10]
  Animal survival rate (surviving/total animals): 8/10
[2]
  LD50 at 7 days: 2670 mg/kg

## CC[C@@H]1OC(=O)[C@H](C)[C@H](OC2C[C@@](C)(OC)[C@](O)(CNCC(C)C)[C@H](C)O2)[C@@H](C)[C@@H](O[C@@H]2O[C@H](C)C[C@H](N(C)C)[C@H]2O)[C@](C)(O)C[C@@H](C)NC[C@@H](C)[C@H](O)[C@]1(C)O (stereo partly drawn) [syzx-12, (2R,3S,4R,5S,8R,10R,11R,12S,13S,14R)-13-[(2,6-dideoxy-3-C-methyl-3-O-methyl-4-C-[(isobutylamino)methyl]-α-L-ribopyranosyl)oxy]-2-ethyl-3,4,10-trihydroxy-3,5,8,10,12,14-hexamethyl-11-[[3,4,6-trideoxy-3-(dimethylamino)-β-D-xylo-hexopyranosy]oxy]-1-oxa-7-azacyclopentadecan-15-one]
[1]; [10]
  Animal survival rate (surviving/total animals): 8/10
[2]
  LD50 at 7 days: 4310 mg/kg
